Holding throughout (experiment): ≥ marks a high value that may be exact or a test limit, other limits are often not marked, values filed in µg/mL are converted to µM
Assay [1] relates to Corynebacterium xerosis C875.
Assay [2] relates to Escherichia coli UB1005.
For assay [3], the system named is Staphylococcus epidermidis C621.
Assay [4] deals with Escherichia coli DC2.
Assay [5] deals with Pseudomonas aeruginosa ATCC 47085.
Assay [6] has as its system Staphylococcus aureus ATCC 25923.
The test system of assay [7] is Proteus vulgaris NCTC 4635.
Assay [8] has as its system Bacillus subtilis ATCC 9372.
Assay [9] deals with Staphylococcus aureus ATCC 6538.
Assay [10] concerns Escherichia coli ATCC 8739.
Assay [11] has as its system Pseudomonas aeruginosa ATCC 9027.
Assay [12] concerns Staphylococcus aureus Cowan 1.
Assay [13] concerns Yersinia pseudotuberculosis YPIII.
For assay [14], the system named is Escherichia coli ATCC 25922.
Assay [15] has as its system Pseudomonas aeruginosa ATCC 15692.
Assay [16] deals with Candida albicans ATCC 10231.
In assay [17] the test system is Pseudomonas syringae pv. tabaci 1918NCPPB.
Assay [18] deals with Saccharomyces cerevisiae.
Assay [19] relates to Pseudomonas aeruginosa ATCC 27853.
For assay [20], the system named is Acinetobacter junii RT-4.
In assay [21] the test system is Acinetobacter baumannii ATCC 19606.
Assay [22] has as its system Enterococcus faecalis ATCC 29212.
Assay [23] deals with Streptococcus pyogenes ATCC 21547.
In assay [24] the test system is Staphylococcus capitis 1.
The subject of assay [25] is Bacillus megaterium Bm11.
Assay [26] relates to Schizosaccharomyces pombe.
The subject of assay [27] is Staphylococcus epidermidis ATCC 12228.
Assay [28] concerns Escherichia coli D21.
The test system of assay [29] is Staphylococcus aureus ATCC 29213.
In assay [30] the test system is Candida albicans ATCC 37092.
Assay [31] relates to Candida tropicalis ATCC 37097.
Assay [32] has as its system Staphylococcus aureus.
The test system of assay [33] is Escherichia coli NCTC 10418.
For assay [34], the system named is Staphylococcus aureus NCTC 10788.
Assay [35] has as its system Candida albicans NCYC 1467.
The test system of assay [36] is Klebsiella pneumoniae ATCC 43816.
In assay [37] the test system is Staphylococcus aureus ATCC 12493.
The subject of assay [38] is Enterococcus faecalis NCTC 12697.

The record followed here is DBAASP.

Molecules are shown by their SMILES. ≈ marks a conversion by molar mass, not a printed value. Where “and” joins values, the source holds several entries; their conditions need not be identical. Equal entries are not always repeated.

Usually MIC stands for the least concentration at which growth counts as inhibited. On to `C[C@H](NC(=O)[C@H](C)NC(=O)[C@H](C)NC(=O)[C@H](CCCCN)NC(=O)[C@H](C)NC(=O)[C@H](C)NC(=O)[C@H](C)NC(=O)[C@H](CCCCN)NC(=O)[C@@H](N)CCCCN)C(=O)N[C@@H](C)C(=O)N[C@@H](C)C(=O)N[C@@H](CCCCN)C(=O)N[C@@H](C)C(=O)N[C@@H](C)C(=O)N[C@@H](Cc1c[nH]c2ccccc12)C(=O)N[C@@H](C)C(=O)N[C@@H](C)C(=O)N[C@@H](CCCCN)C(=O)N[C@@H](C)C(=O)N[C@@H](C)C(=O)N[C@@H](C)C(=O)N[C@@H](CCCCN)C(=O)N[C@@H](CCCCN)C(=O)N[C@@H](CCCCN)C(=O)N[C@@H](CCCCN)C(N)=O` [KKAAAKAAAAAKAAWAAKAAAKKKK], for which the MIC in assay [1] was 16 µM (≈ 38.8 µg/mL); in [2], at least 64 µM; in [3] it was at least 64 µM; in [4] it was at least 64 µM.

With `CC[C@H](C)[C@H](NC(=O)[C@H](CCCN=C(N)N)NC(=O)[C@H](CC(C)C)NC(=O)[C@H](Cc1ccccc1)NC(=O)[C@H](CCC(=O)O)NC(=O)[C@H](CCCCN)NC(=O)[C@H](Cc1c[nH]c2ccccc12)NC(=O)[C@H](CCCCN)NC(=O)[C@H](Cc1c[nH]c2ccccc12)NC(=O)CNC(=O)[C@H](Cc1c[nH]c2ccccc12)NC(=O)[C@H](CCCCN)NC(=O)[C@H](Cc1c[nH]c2ccccc12)NC(=O)[C@H](CC(C)C)NC(=O)[C@H](CC(C)C)NC(=O)CN)C(=O)N[C@H](C(=O)NCC(=O)N[C@@H](Cc1ccc(O)cc1)C(N)=O)C(C)C` [GLLWKWGWKWKEFLRIVGY], the results for the MIC in assay [5] and in assay [6] were at least 415 µM and over 415 µM, respectively.

Regarding `CC[C@H](C)[C@H](NC(=O)[C@@H](NC(=O)[C@H](CC(=O)O)NC(=O)[C@H](Cc1ccccc1)NC(=O)[C@H](CC(C)C)NC(=O)CN)C(C)C)C(=O)N[C@@H](CCCCN)C(=O)N[C@@H](CCCCN)C(=O)N[C@H](C(=O)N[C@@H](C)C(=O)N[C@@H](CO)C(=O)O)C(C)C` [GLFDVIKKVAS], the MIC in [7] was at least 870 µM; in [8], at least 435 µM; in assay [9], over 870 µM; in [10], at least 870 µM; in assay [11], 870 µM (≈ 1020 µg/mL).

With `CC[C@H](C)[C@H](NC(=O)[C@@H](NC(=O)[C@H](CO)NC(=O)[C@H](C)NC(=O)[C@@H](NC(=O)[C@H](CCCCN)NC(=O)[C@H](CCCCN)NC(=O)[C@@H](NC(=O)[C@@H](NC(=O)[C@H](C)NC(=O)[C@H](Cc1ccccc1)NC(=O)[C@H](CC(C)C)NC(=O)CN)C(C)C)[C@@H](C)CC)C(C)C)C(C)C)C(=O)NCC(=O)NCC(=O)O` [GLFAVIKKVASVIGG], the MIC in [7] is at least 351 µM; in [8] it was at least 351 µM; in [9] it was over 351 µM; in assay [10] it was at least 351 µM; in assay [11] it was 351 µM (≈ 512 µg/mL).

For the molecule `CC[C@H](C)[C@H](NC(=O)[C@H](CCCN=C(N)N)NC(=O)[C@@H]1CCCN1C(=O)[C@H](CC(C)C)NC(=O)[C@H](Cc1ccccc1)NC(=O)[C@H](CCCCN)NC(=O)[C@H](CO)NC(=O)[C@H](Cc1ccccc1)NC(=O)[C@H](Cc1c[nH]c2ccccc12)NC(=O)[C@@H]1CCCN1C(=O)[C@@H](NC(=O)[C@@H](N)Cc1ccccc1)C(C)C)C(=O)N[C@@H](CC(C)C)C(N)=O` [FVPWFSKFLPRIL], the MIC in [12] was 24 µM (≈ 39.6 µg/mL); in assay [13], 24 µM (≈ 39.6 µg/mL); in assay [6] it was 24 µM (≈ 39.6 µg/mL); in [14] it was 48 µM (≈ 79.2 µg/mL); in assay [15], at least 48 µM; in assay [16], 12 µM (≈ 19.8 µg/mL). The MIC is 24 µM (≈ 39.6 µg/mL) in [17]; 12 µM (≈ 19.8 µg/mL) in assay [18]; over 48 µM in [19]; 12 µM (≈ 19.8 µg/mL) in assay [20]; 48 µM (≈ 79.2 µg/mL) in assay [21]; 48 µM (≈ 79.2 µg/mL) in assay [22]. In addition, the minimum inhibitory concentration (MIC) in assay [23] was 12 µM (≈ 19.8 µg/mL); in assay [24] it was 12 µM (≈ 19.8 µg/mL); in assay [25], 3 µM (≈ 4.95 µg/mL); in assay [26] it was 12 µM (≈ 19.8 µg/mL); in [27], 12 µM (≈ 19.8 µg/mL); in [28] it was 24 µM (≈ 39.6 µg/mL).

As to `CC(C)C[C@H](NC(=O)[C@@H](N)CCCN=C(N)N)C(=O)N[C@@H](Cc1ccc(O)cc1)C(=O)N[C@@H](CCCN=C(N)N)C(N)=O` [RLYR], the MIC in assay [29] was 4.5 µM and 10.2 µM; in assay [14] it was 6.1 µM and 10.2 µM; in [30], 10 µM and 6.4 µM; in [31], 1.3 µM and 1.8 µM; in assay [22], 4.7 µM and 10.2 µM.

With `CSCC[C@H](NC(=O)[C@H](C)NC(=O)[C@H](C)NC(=O)[C@H](C)NC(=O)[C@H](CCCCN)NC(=O)[C@@H](N)CCCCN)C(=O)N[C@@H](C)C(=O)N[C@@H](C)C(=O)N[C@@H](C)C(=O)N[C@@H](C)C(=O)N[C@@H](C)C(=O)N[C@@H](CCSC)C(=O)N[C@@H](C)C(=O)N[C@@H](C)C(=O)N[C@@H](Cc1c[nH]c2ccccc12)C(=O)N[C@@H](C)C(=O)N[C@@H](C)C(=O)N[C@@H](CCSC)C(=O)N[C@@H](C)C(=O)N[C@@H](C)C(=O)N[C@@H](C)C(=O)N[C@@H](CCCCN)C(=O)N[C@@H](CCCCN)C(=O)N[C@@H](CCCCN)C(=O)N[C@@H](CCCCN)C(N)=O` [KKAAAMAAAAAMAAWAAMAAAKKKK], the MIC is 0.5 µM (≈ 1.22 µg/mL) in [1], at least 32 µM in assay [2], 16 µM (≈ 38.9 µg/mL) in [3] and at least 32 µM in [4].

With `CC[C@H](C)[C@H](NC(=O)[C@H](CO)NC(=O)[C@H](CCCCN)NC(=O)[C@H](Cc1c[nH]c2ccccc12)NC(=O)[C@H](CC(C)C)NC(=O)[C@H](C)N)C(=O)N[C@@H](CC(C)C)C(=O)N[C@@H](CCCCN)C(=O)N[C@@H](CC(N)=O)C(=O)N[C@H](C(=O)NCC(=O)N[C@@H](CCCCN)C(=O)N[C@@H](C)C(=O)N[C@@H](C)C(=O)NCC(=O)N[C@@H](CCCCN)C(=O)N[C@@H](C)C(=O)N[C@H](C(=O)N[C@@H](CC(C)C)C(N)=O)C(C)C)C(C)C` [ALWKSILKNVGKAAGKAVL], the MIC was 11.3 µM (≈ 22.2 µg/mL) in assay [32]; 4 µM (≈ 7.87 µg/mL) in [19]; 2 µM (≈ 3.93 µg/mL) in [33]; 2 µM (≈ 3.93 µg/mL) in assay [34]; 2 µM (≈ 3.93 µg/mL) in assay [35]; at least 32 µM in assay [36]. Moreover, the MIC was 8 µM (≈ 15.7 µg/mL) in assay [37] and at least 256 µM in assay [38].
